Measured values reported in the supplement of paper PMC10307832.

Experiments:
Test in all cases: relative viability (nuclei count vs DMSO), 5 days (fraction); higher = more cells survive
Vandetanib + Tozasertib = compound: COc1cc2/c(=N/c3ccc(Br)cc3F)nc[nH]c2cc1OCC1CCN(C)CC1 [Vandetanib] + Cc1cc(Nc2cc(N3CCN(C)CC3)nc(Sc3ccc(NC(=O)C4CC4)cc3)n2)n[nH]1 [Tozasertib] (partner 0.1 µM)
Method in brief: (§1)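 Lung cancer cell lines in 1536-well plates got either a single drug or a fixed anchor-drug dose together with five library-drug doses (not always all listed) in √10 steps, by pin tool, on the day after seeding. Nuclei were counted after 5 days, and relative viability is the treated-to-vehicle ratio of nuclei counts. Values are medians of duplicate plates.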

NVP-TAE684 + Pictilisib = compound: COc1cc(N2CCC(N3CCN(C)CC3)CC2)ccc1Nc1ncc(Cl)c(Nc2ccccc2S(=O)(=O)C(C)C)n1 [NVP-TAE684] + CS(=O)(=O)N1CCN(Cc2cc3nc(-c4cccc5[nH]ncc45)nc(N4CCOCC4)c3s2)CC1 [Pictilisib] (partner 1 µM)
Method in brief: as §1

CUDC-101 + Decitabine = compound: C#Cc1cccc(Nc2ncnc3cc(OC)c(OCCCCCCC(=O)NO)cc23)c1 [CUDC-101] + Nc1ncn([C@H]2C[C@H](O)[C@@H](CO)O2)c(=O)n1 [Decitabine] (partner 2 µM)
Method in brief: as §1

CUDC-101 + Phenformin = compound: C#Cc1cccc(Nc2ncnc3cc(OC)c(OCCCCCCC(=O)NO)cc23)c1 [CUDC-101] + N=C(N)NC(=N)NCCc1ccccc1 [Phenformin] (partner 250 µM)
Method in brief: as §1

Row | Cell Line | relative viability (Vandetanib + Tozasertib; first compound 0.02 µM) | relative viability (Vandetanib + Tozasertib; first compound 0.06325 µM) | relative viability (Vandetanib + Tozasertib; first compound 0.2 µM) | relative viability (Vandetanib + Tozasertib; first compound 0.6325 µM) | relative viability (Vandetanib + Tozasertib; first compound 2 µM) | relative viability (NVP-TAE684 + Pictilisib; first compound 0.2 µM) | relative viability (NVP-TAE684 + Pictilisib; first compound 0.6325 µM) | relative viability (NVP-TAE684 + Pictilisib; first compound 2 µM) | relative viability (CUDC-101 + Decitabine; first compound 0.01 µM) | relative viability (CUDC-101 + Decitabine; first compound 0.03162 µM) | relative viability (CUDC-101 + Decitabine; first compound 0.1 µM) | relative viability (CUDC-101 + Decitabine; first compound 0.3162 µM) | relative viability (CUDC-101 + Decitabine; first compound 1 µM) | relative viability (CUDC-101 + Phenformin; first compound 0.01 µM) | relative viability (CUDC-101 + Phenformin; first compound 0.03162 µM) | relative viability (CUDC-101 + Phenformin; first compound 0.1 µM) | relative viability (CUDC-101 + Phenformin; first compound 0.3162 µM) | relative viability (CUDC-101 + Phenformin; first compound 1 µM)
1 | HCC-44 | 0.924 | 0.851 | 1.01 | 1.05 | 0.949 | 0.658 | 0.602 | 0.412 | 0.908 | 1.03 | 0.912 | 0.906 | 0.913 | 0.163 | 0.185 | 0.22 | 0.185 | 0.139
2 | EKVX | 0.431 | 0.424 | 0.398 | 0.409 | 0.27 | 0.437 | 0.354 | 0.319 | 0.322 | 0.446 | 0.33 | 0.323 | 0.299 | 0.255 | 0.229 | 0.211 | 0.244 | 0.222
3 | NCI-H23 | 0.307 | 0.41 | 0.144 | 0.382 | 0.327 | 0.518 | 0.422 | 0.377 | 0.317 | 0.321 | 0.346 | 0.307 | 0.543 | 0.793 | 0.743 | 0.81 | 0.851 | 0.789
4 | NCI-H2347 | 0.607 | – | 0.553 | 0.563 | 0.674 | 0.572 | 0.482 | 0.597 | 0.636 | 0.585 | 0.672 | 0.591 | 0.576 | 0.446 | 0.299 | 0.308 | 0.512 | 0.371
5 | SK-LU-1 | 0.36 | 0.361 | 0.133 | 0.292 | 0.317 | 0.501 | 0.524 | 0.444 | 0.671 | 0.646 | 0.677 | 0.729 | 0.609 | 0.497 | 0.441 | 0.576 | 0.593 | 0.493
6 | A549 | – | – | – | – | – | 0.534 | 0.407 | 0.108 | 0.297 | 0.277 | 0.218 | 0.286 | 0.276 | 0.172 | 0.192 | 0.143 | 0.158 | 0.141
7 | LU99A | 0.253 | 0.33 | 0.251 | 0.261 | 0.3 | 0.288 | 0.362 | 0.249 | 0.824 | 0.823 | 0.9 | 0.831 | 0.657 | 0.825 | 0.682 | 0.676 | 0.947 | 0.572
8 | NCI-H596 | 0.922 | 0.706 | 0.688 | 1.03 | 0.898 | 0.396 | 0.372 | 0.335 | 0.902 | 1.03 | 0.988 | 1.18 | 1.02 | 0.886 | 0.729 | 0.751 | 0.772 | 0.698
9 | A-427 | 0.215 | 0.248 | 0.219 | 0.155 | 0.223 | 0.735 | – | 0.652 | 0.617 | 0.619 | 0.591 | 0.568 | 0.554 | 0.328 | 0.347 | 0.464 | 0.502 | 0.389
10 | SW 900 | 0.688 | 0.417 | 0.142 | 0.634 | 0.609 | – | – | – | 0.428 | 0.405 | 0.426 | 0.397 | 0.33 | 0.666 | 0.538 | 0.687 | 0.499 | 0.643
11 | COR-L 105 | 0.331 | 0.355 | 0.223 | 0.317 | 0.286 | 0.307 | 0.281 | 0.264 | 0.67 | 0.752 | 0.622 | 0.723 | 0.351 | 0.627 | 0.481 | 0.447 | 0.528 | 0.198
12 | LOU-NH91 | 0.735 | 0.635 | 0.61 | 0.543 | 0.526 | 0.635 | 0.462 | 0.481 | 0.804 | 0.706 | 0.76 | 0.807 | 0.711 | 0.736 | 0.56 | 0.534 | 0.587 | 0.393
13 | COR-L23 | 0.189 | 0.241 | 0.218 | 0.223 | 0.222 | 0.51 | 0.442 | 0.173 | 0.432 | 0.383 | 0.332 | 0.376 | 0.164 | 0.479 | 0.456 | 0.419 | 0.365 | 0.25
14 | HCC-15 | 0.555 | 0.416 | 0.07 | 0.35 | 0.347 | 0.718 | 0.738 | 0.737 | 0.579 | 0.628 | 0.655 | 0.621 | 0.443 | 0.434 | 0.432 | 0.521 | 0.556 | 0.376
15 | LCLC-103H | 0.613 | 0.443 | 0.548 | 0.481 | 0.555 | 0.71 | 0.567 | 0.451 | 0.692 | 0.695 | 0.722 | 0.657 | 0.633 | 0.384 | 0.367 | 0.36 | 0.357 | 0.31
